Values of other authors as cited in patent US9808437B2, “Monounsaturated fatty acid compositions and use for treating atherosclerosis” (BURKE & BOYER NYC, priority 2014, dated 2017).

Test system: ApoE-deficient mice
Settings: 20 mg/kg/day; control 21.9 ± 2.9; P<0.05

CC(C)c1nc(N(C)S(C)(=O)=O)nc(-c2ccc(F)cc2)c1/C=C/[C@@H](O)C[C@@H](O)CC(=O)O [Rosuvastatin]
Aortic Lesion: 11.9 ± 1.9 %
